Laboratory results reported in US20220143042A1, “FUSED GLYCOSIDASE INHIBITORS” (Asceneuron SA, priority 2019, published 2022).

Biological target: T1, His-Tagged hOGA (Homo sapiens, UniProt O60502)
T1 sequence (O60502 1-916): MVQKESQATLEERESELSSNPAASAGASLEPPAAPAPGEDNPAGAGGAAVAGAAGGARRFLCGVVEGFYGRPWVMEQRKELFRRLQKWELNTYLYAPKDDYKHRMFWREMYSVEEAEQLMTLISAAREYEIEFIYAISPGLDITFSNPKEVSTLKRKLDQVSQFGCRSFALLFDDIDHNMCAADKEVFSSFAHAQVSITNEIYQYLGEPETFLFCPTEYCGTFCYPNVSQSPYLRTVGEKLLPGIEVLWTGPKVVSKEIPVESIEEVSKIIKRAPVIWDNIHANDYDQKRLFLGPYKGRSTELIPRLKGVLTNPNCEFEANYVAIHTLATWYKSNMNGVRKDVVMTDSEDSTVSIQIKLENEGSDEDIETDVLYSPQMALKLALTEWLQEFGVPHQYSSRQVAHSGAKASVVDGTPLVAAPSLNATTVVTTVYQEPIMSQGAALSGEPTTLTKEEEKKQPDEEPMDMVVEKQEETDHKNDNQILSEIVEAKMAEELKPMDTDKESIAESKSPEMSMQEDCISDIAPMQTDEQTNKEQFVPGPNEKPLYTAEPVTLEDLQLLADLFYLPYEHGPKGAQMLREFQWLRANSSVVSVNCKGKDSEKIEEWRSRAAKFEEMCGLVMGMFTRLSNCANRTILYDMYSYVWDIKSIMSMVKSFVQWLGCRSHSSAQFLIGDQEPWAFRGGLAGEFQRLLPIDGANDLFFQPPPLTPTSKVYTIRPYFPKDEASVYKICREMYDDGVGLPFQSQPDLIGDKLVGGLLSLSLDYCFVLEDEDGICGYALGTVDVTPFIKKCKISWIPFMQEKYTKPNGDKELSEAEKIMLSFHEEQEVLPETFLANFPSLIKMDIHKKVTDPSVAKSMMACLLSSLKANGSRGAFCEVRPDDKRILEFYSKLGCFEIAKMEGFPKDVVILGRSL
Experiment: Human O-GlcNAcase enzyme inhibition assay
Assay type: biochemical
Conditions: OGA enzyme inhibition assay; FL-GlcNAc substrate, 60 min at room temperature, pH 6.5
Procedure: EXAMPLE B01: HUMAN O-GLCNACASE ENZYME INHIBITION ASSAY
5 μl of the appropriate concentration of a solution of inhibitor in Mcllvaine's Buffer (pH 6.5) in 2% DMSO (for a dose response curve calculation) is added into each well of a 384-well plate (Greiner, 781900). Then, 20 nM of His-Tagged hOGA and 10 μM of FL-GlcNAc (Fluorescein mono-beta-D-(2-deoxy-2-N-acetyl) glucopyranoside; Marker Gene Technologies Inc, M1485) were added to the 384-well plate for a final volume of 20 μl. After incubation for 60 min at room temperature, the reaction was terminated by the addition of 10 μL of stop buffer (200 mM glycine, pH 10.75). The level of fluorescence (λexc 485 nm; (λemm 520 nm) was read on a PHERAstar machine. The amount of fluorescence measured was plotted against the concentration of inhibitor to produce a sigmoidal dose response curve to calculate an IC50. All individual data was corrected by subtraction of the background (Thiamet 3 uM=100% inhibition) whilst 0.5% DMSO was considered as the control value (no inhibition).

Structure (SMILES): CC(c1ccc2scnc2c1)N1CCc2cn(C)nc2CC1 (racemic) [Example 1, 5-(1-(2-METHYL-4,5,7,8-TETRAHYDROPYRAZOLO[3,4-D]AZEPIN-6(2H)-YL)ETHYL)BENZO[D]THIAZOLE]
- IC50: < 0.05 µM

Structure (SMILES): Cc1nc2c(s1)CCN(C(C)c1ccc3scnc3c1)CC2 (racemic) [Example 14, 6-(1-(BENZO[D]THIAZOL-5-YL)ETHYL)-2-METHYL-5,6,7,8-TETRAHYDRO-4H-THIAZOLO[4,5-D]AZEPINE]
- IC50: < 0.05 µM

Structure (SMILES): CC(=O)Nc1nc2c(s1)CCN(C(C)c1ccc3scnc3c1)CC2 (racemic) [Example 16]
- IC50: < 0.05 µM

Structure (SMILES): Cc1nc2c(s1)CCN(C(C)c1ccc3c(c1)OCC3)CC2 (racemic) [Example 20, 6-(1-(2,3-DIHYDROBENZOFURAN-6-YL)ETHYL)-2-METHYL-5,6,7,8-TETRAHYDRO-4H-THIAZOLO[4,5-D]AZEPINE]
- IC50: < 0.05 µM

Structure (SMILES): CC(=O)Nc1ncc(CN2CCc3cn(C)nc3CC2)s1 (racemic) [Example 23, N-(5-((2-METHYL-4,5,7,8-TETRAHYDROPYRAZOLO[3,4-D]AZEPIN-6(2H)-YL)METHYL)THIAZOL-2-YL)ACETAMIDE]
- IC50: < 0.05 µM

Structure (SMILES): CC(=O)Nc1ncc(CN2CCc3nc(C)sc3CC2)s1 (racemic) [Example 26, N-(5-((2-METHYL-4,5,7,8-TETRAHYDRO-6H-THIAZOLO[4,5-D]AZEPIN-6-YL)METHYL)THIAZOL-2-YL)ACETAMIDE]
- IC50: < 0.05 µM

Structure (SMILES): CC(c1ccc2scnc2c1)N1CCc2nn(C)c(-c3ccccc3)c2CC1 (racemic) [Example 46, 5-(1-(2-METHYL-3-PHENYL-4,5,7,8-TETRAHYDROPYRAZOLO[3,4-D]AZEPIN-6(2H)-YL)ETHYL)BENZO[D]THIAZOLE]
- IC50: < 0.05 µM

Structure (SMILES): CC(c1ccc2scnc2c1)N1CCc2c(-c3ccccc3)nn(C)c2CC1 (racemic) [Example 47, 5-(1-(1-METHYL-3-PHENYL-4,5,7,8-TETRAHYDROPYRAZOLO[3,4-D]AZEPIN-6(1H)-YL)ETHYL)BENZO[D]THIAZOLE]
- IC50: < 0.05 µM

Structure (SMILES): CC(c1ccc2scnc2c1)N1CCc2c([Si](C)(C)C)nn(C)c2CC1 (racemic) [Example 48, 5-(1-(1-METHYL-3-(TRIMETHYLSILYL)-4,5,7,8-TETRAHYDROPYRAZOLO[3,4-D]AZEPIN-6(1H)-YL)ETHYL)BENZO[D]THIAZOLE]
- IC50: < 0.05 µM

Structure (SMILES): CC(=O)Nc1ncc(CN2CCc3nc(N)sc3CC2)s1 (racemic) [Example 151, N-(5-((2-AMINO-4,5,7,8-TETRAHYDRO-6H-THIAZOLO[4,5-D]AZEPIN-6-YL)METHYL)THIAZOL-2-YL)ACETAMIDE]
- IC50: 0.05 to 0.2 µM

Structure (SMILES): CC(=O)Nc1nc2c(s1)CN(C(C)c1ccc3scnc3c1)CCC2 (racemic) [Example 152]
- IC50: 0.2 to 1 µM

Structure (SMILES): CC(=O)Nc1ncc(CN2CCc3nncn3CC2)s1 (racemic) [Example 154]
- IC50: < 0.05 µM

Structure (SMILES): CC(c1ccc2scnc2c1)N1CCc2nc[nH]c2CC1 (racemic) [Example 161]
- IC50: 0.05 to 0.2 µM

Structure (SMILES): CC(c1ccc2scnc2c1)N1CCCc2nn(C)cc2C1 (racemic) [Example 165, 5-(1-(2-METHYL-2,6,7,8-TETRAHYDROPYRAZOLO[4,3-C]AZEPIN-5(4H)-YL)ETHYL)BENZO[D]THIAZOLE]
- IC50: 0.2 to 1 µM

Structure (SMILES): CC(=O)Nc1nc2c(s1)CCN(C(C)c1ccc3scnc3c1)CC2 (single isomer, unassigned) [Example 162]
- IC50: < 0.05 µM

Structure (SMILES): CC(=O)Nc1nc2c(s1)CCN(C(C)c1ccc3scnc3c1)CC2 (single isomer, unassigned) [Example 163]
- IC50: 0.2 to 1 µM
